Earlier results in patent US8232305B2, “Anti-microbial compositions” (BASF SE, priority 2006, dated 2012).

Test system: cocci, rods and fungi
Details: Pernak et al., 226th ACS National Meeting 2003; cited from earlier work

CCCCCCCCOC[n+]1ccn(C)c1.F[B-](F)(F)F [1-methyl-3-octyloxymethylimidazolium tetrafluoroborate]
effectiveness against cocci, rods and fungi: the most effective of the ionic liquids tested
